Entries after “also recorded” stand apart in the source; their conditions may differ.

One test has as its system microglia. As to conditions: in vivo; cited from earlier work.
The nature of test [1]: Seizure susceptibility and survival after status epilepticus (SE). The class given is in vivo, BALB/c (nu/nu) mice. The conditions noted are these: 60 mg/kg i.p. daily for 5 days, 24 h after SE. As to the method: BABL/c (nu/nu) mice received compound LAU-0901 (60 mg/kg; i.p.) or saline daily for 5 days 24 h after SE.
GBM cells were implanted into PAF-r deficient or wild type mice. Lyn kinase inhibitor (Dasatinib; 0.01 mL/g) (Luo et al., 2000) or vehicle (propylene glycol/water) was administered intraperitoneally at 14 d after GBM implantation and continues for 14 d. Alternatively, BALB/c, (nu/nu) mice received LAU-0901 (60 mg/kg; i.p.) or saline daily for 5 days (n=4-5 per group) 24 h after SE. Weight, locomotion, survival rate, behavior, in vivo tumor growth, and GBM cells were analyzed.

The subject of another test is U87MG cells. The experiment in a line: Hippocampal U87MG GBM xenograft, tumor growth by in vivo bioluminescent imaging. Set-up: species or system BALB/c (nu/nu) mice. On the procedure:
FIGS. 3A-3C illustrate that a PAF-r antagonist reduces GBM tumor size. U87MG cells were implanted in the right dorsal CA3 hippocampal region of BALB/c (nu/nu) mice. Intracranial tumor growth was quantified using Jo vivo bioluminescent imaging on days 10 and 25. Saline (vehicle) or LAU-0901 (60 mg/kg/day; i.p., n=6 in each group) was administered daily from day 10, during 5 days.
Experimental Design and Methods: PAF-r deficient and wild type mice and athymic nude mice, 6 to 8 weeks of age (Harlan Laboratories) mice were used. The xerograph GBM mouse model is representative of this tumor, which has a narrow survival window. These cells form a massive and homogenous mass from tumor-initiating cells, are localized, and invade neuronal tissue. This model is a predictor of therapeutic responses in human glioblastoma patients. U87MG cells (FIGS. 2A-3C) with a luciferase reporter gene were injected (5×10^5 cells in […] serum-free DMEM) into the right dorsal CA3 hippocampal region (coordinates: 2.5 mm lateral, 1.7 mm posterior to the bregma, and 1.5 depth) of mice (6-8 wks of age) (Marrero et al., 2014).
In vivo imaging analysis: Intracranial tumor growth was quantified by bioluminescent imaging using an in vivo imaging system and procedures as described by Marrero et al., 2014, incorporated herein by reference in its entirety.

A short description of test [2]: Pentylenetetrazol (PTZ) test, locomotor seizures by modified Racine's score. The class given is in vivo, mice. As to conditions: single dose 60 mg/kg i.p. 2 h before PTZ 40 mg/kg i.p.; vs vehicle. As to the method:
A single dose (i.p.) of a LAU compound 60 mg/kg; ip.) or vehicle (0.1 mL of sterile 0.9% sodium chloride) was administered 2 h before a single dose of pentylenetetrazol (PTZ) (40 mg/kg; i.p.). Data represent average and bars±S.E.M. t-test between vehicle and for each LAU compound: LAU0901 p<0.031; others: p<0.0001 at 60 mins. Maximum seizure levels and the percentage reduction from vehicle after PTZ injection are shown. Locomotor seizures were video recorded and quantified according to a modified Racine's score (Stage: 0 normal locomotor activity. Stage 1, behavioral arrest, Stage 2: head nodding; stage 3, facial movements and contralateral forelimb dorms).
Pentylenetetrazol test: The systemic administration of pentylenetetrazol (PTZ) in rodents, an accepted model to test the potential anti-convulsive effect (Loscher, 2011) was used to evaluate seizure susceptibility in mice with GBM cell implantation. It has been seen that systemic administration of PTZ at 35 mg/kg is useful as a sub-convulsive dose to evaluate seizures after brain damage. Animals were placed in individual Plexiglas cages (28×28×37.5 cm) and then a single dose of PTZ (Sigma, St. Louis, MO) at 35 mg/kg were administered intraperitoneally (i.p.) to each animal. Locomotor seizures were quantified according to a modified Racine's Score classified as previously described (Musto et al., 2009, 2011).

A further test concerns Lyn kinase. The test is described as follows: Phospho-Lyn in hippocampal synapsis after SE, immunohistology. As to conditions: hippocampus. The class given is in vivo, mice.
Test [3] concerns MIP-2. The test is described as follows: Hippocampal MIP-2 after neuroinflammation (LPS / post status epilepticus), bead-based immunodetection. The class given is in vivo, mice. As to conditions: 60 mg/kg/daily for 5 days i.p. On the procedure: MIP-2 was measured using bead-based immunodetection. Values are means±SD: *P<0.05 (two-way repeated-measures ANOVA).
MIP-2 was measured using bead-based immunodetection respectively. Diamonds: interval of confidence; diamond internal horizontal line; group mean; bar lines; standard deviation. Data represent average and bars±S.E.M; n=3 of each group. ANOVA one way, *=p<0.05.
Pro-inflammatory molecular analysis: LC-MS/MS-based mediator lipidomic analysis will be evaluated as described previously (Musto et al., 2011, Musto and Samii, 2011), chemokine analysis was performed using commercial enzyme-linked immune-absorbent assay (Rodent MAPs Myira RBM, USA), and matrix metalloproteinase (MMP) activity were investigated by gelatin zymography assay (Ramaswamy et al., 2014).

The test system of test [4] is dysmorphic filopodia-like spines. The experiment in a line: Dysmorphic filopodia-like dendritic spines in epileptogenesis, Golgi staining. The class given is in vivo, mice. As to conditions: 7 days after SE.
Description: Cyto-architecture hippocampal neurons, dendrites and dendritic spines was evaluated using rapid Golgi staining and the DIOLISTIC labeling approach, as shown in FIG. 12A. Then dendrites and dendritic spines from pyramidal cells were reconstructed, analyzed, and visualized in a 30 shape of neurons from the ipsi and contralateral hippocampal region using light and confocal microscopy, digitally-traced, mediated computational analysis.
Test [5] deals with MIP-2. The test is described as follows: MIP-2 in mice with GBM. It counts as in vivo. The conditions noted are these: compared with vehicle.

As to “2,4,6-trimethyl-1,4-dihydro-pyridine-3,5-dicarboxylic acid 5-[2-(3,4-dichlorophenyl) sulfanethyl ester 3-[1,3-di-(4-morpholinyl)-2-propyl-1-ester [LAU-0901]”, the microglia activation entry in the test on microglia was “reduces microglia activation”. Further, the seizure severity result in test [1] is reported as “reduced seizure severity”. Also, in the test with U87MG cells (60 mg/kg/day i.p. for 5 days from day 10, representative images, 10 week-survival period, vs saline), the tumor size result is “dramatically reduced”. The “tumor size diminished compared to saline-treated group” value in the test on U87MG cells (day 25, 60 mg/kg/day i.p. for 5 days from day 10) stood at 80%. Also, the body weight entry in the test on U87MG cells (weeks 8 and 10, compared to saline group) is reported as “increased”. The “neuronal hyper-excitability (locomotor seizures after PTZ)” value in test [2] is “counteract neuronal hyper-excitability”. The “puncta phospho-Lyn and co-localization with pre- and post-synaptic markers” value with Lyn kinase is listed as “low puncta phospho-Lyn”. The “hippocampal levels of MIP-2” value in the test on MIP-2 [3] (LPS one week after status epilepticus, vs saline (FIG. 4)) is reported as “reduced”; with MIP-2 [3] (LPS or one week after status epilepticus (PSE), vs vehicle (FIG. 20), 60 mg/kg), “limited; also recorded: reduces”. Besides, the “average spine length for dysmorphic filopodia-like spines” value in test [4] was “increased in the vehicle-treated compared to the LAU-0901-treated group”.

Take `CC(C)Cc1ccc([C@@H](C)C(=O)NS(C)(=O)=O)cc1` [repertaxin]: the “increases of MIP-2” value with MIP-2 [5] is “higher in those mice treated with vehicle”.

The values are drawn from patent publication US12070463B2, “Compositions and methods for the treatment of seizure caused by brain tumor” (Board Of Supervisors Of Louisiana State University And …, priority 2015, dated 2024).
